Test results: publication PMC4224610 (Chemistry & biology, 2014)

Assays:
Type in all cases: biochemical
[1] = molecular target: T1, TTHA0604 (Thermus thermophilus, UniProt Q5SKN9); assay: coupled NADH assay at […] nm; conditions: decanoic acid, ATP, MgCl2, pH 8 100 mM Tris
T1 sequence (Q5SKN9 1-541): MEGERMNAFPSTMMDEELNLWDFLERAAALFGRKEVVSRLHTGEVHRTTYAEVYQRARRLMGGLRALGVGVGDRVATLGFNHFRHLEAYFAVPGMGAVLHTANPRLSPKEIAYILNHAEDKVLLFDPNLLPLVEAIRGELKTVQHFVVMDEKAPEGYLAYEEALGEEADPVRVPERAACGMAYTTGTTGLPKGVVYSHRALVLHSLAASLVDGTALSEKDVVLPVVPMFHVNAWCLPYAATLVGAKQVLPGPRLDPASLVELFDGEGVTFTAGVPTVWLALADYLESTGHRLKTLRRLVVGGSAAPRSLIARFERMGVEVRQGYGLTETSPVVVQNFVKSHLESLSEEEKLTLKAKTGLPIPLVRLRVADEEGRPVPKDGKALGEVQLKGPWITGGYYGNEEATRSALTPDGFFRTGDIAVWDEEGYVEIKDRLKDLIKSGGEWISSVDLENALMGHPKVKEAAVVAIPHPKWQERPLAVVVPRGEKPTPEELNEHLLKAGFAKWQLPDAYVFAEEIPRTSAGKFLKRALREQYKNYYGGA

[2] = molecular target: T2, Slr1609 (Synechocystis sp. PCC 6803, UniProt P73004); assay: coupled NADH assay at […] nm; conditions: decanoic acid, ATP, MgCl2, pH 8 100 mM Tris
T2 sequence (P73004 1-696): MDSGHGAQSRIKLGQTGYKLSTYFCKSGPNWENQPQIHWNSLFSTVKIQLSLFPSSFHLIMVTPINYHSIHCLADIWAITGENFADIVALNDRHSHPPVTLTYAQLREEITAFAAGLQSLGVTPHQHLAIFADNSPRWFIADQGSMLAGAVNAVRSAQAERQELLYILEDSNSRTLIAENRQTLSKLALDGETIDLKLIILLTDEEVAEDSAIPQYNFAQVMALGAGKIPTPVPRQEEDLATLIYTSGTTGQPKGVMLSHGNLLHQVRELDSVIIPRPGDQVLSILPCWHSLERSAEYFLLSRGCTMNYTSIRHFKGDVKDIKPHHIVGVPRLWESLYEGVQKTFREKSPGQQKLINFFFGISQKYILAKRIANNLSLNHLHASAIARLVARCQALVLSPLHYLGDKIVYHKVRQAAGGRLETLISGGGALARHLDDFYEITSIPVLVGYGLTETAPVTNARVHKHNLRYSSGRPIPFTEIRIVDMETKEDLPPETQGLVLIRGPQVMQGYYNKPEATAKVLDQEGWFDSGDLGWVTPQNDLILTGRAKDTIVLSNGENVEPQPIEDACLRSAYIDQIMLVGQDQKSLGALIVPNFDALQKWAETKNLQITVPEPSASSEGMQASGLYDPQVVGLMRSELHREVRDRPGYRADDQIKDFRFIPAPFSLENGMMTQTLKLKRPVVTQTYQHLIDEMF

[3] = molecular target: T3, VhAasS (Vibrio harveyi, UniProt Q00IB3); assay: UREA-PAGE of ACP loading; conditions: holo-E. coli AcpP as acceptor, ATP, MgCl2, DTT, 37 °C overnight
[4] = molecular target: T3, VhAasS; assay: UREA-PAGE and mass spectrometry of ACP loading; conditions: holo-E. coli ACP as acceptor, ATP, MgCl2, pH 8, 37 °C overnight

## CC(C)(COP(=O)(O)OP(=O)(O)OC[C@H]1O[C@@H](n2cnc3c(N)ncnc32)[C@H](O)[C@@H]1OP(=O)(O)O)[C@@H](O)C(=O)NCCC(=O)NCCS [coenzyme A]
[1]
  coupled NADH assay at 340 nm; DTNB assay of CoA consumption; HPLC-MS: both TTHA0604 and Slr1609 show acyl-CoA ligase activity
[2]
  coupled NADH assay at 340 nm; DTNB assay of CoA consumption; HPLC-MS: both TTHA0604 and Slr1609 show acyl-CoA ligase activity

## CCCCCCCCCC(=O)O [decanoic acid]
[3]
  UREA-PAGE of ACP loading: VhAasS showed increased loading over Slr1609, TTHA0604, and AAE15

## O=C(O)CCCCC(=O)c1ccccc1 [5-benzoylvaleric acid]
[4]
  UREA-PAGE and mass spectrometry of ACP loading: functionalized fatty acids
